The term IC50 denotes the concentration that gives 50% inhibition. The low end stands for higher potency, the high end for lower potency.

The target of the first test is T1, human glucagon receptor (Homo sapiens, UniProt P47871).
T1 construct: expressed in transfected cells; cell membranes used
T1 sequence (P47871 26-477): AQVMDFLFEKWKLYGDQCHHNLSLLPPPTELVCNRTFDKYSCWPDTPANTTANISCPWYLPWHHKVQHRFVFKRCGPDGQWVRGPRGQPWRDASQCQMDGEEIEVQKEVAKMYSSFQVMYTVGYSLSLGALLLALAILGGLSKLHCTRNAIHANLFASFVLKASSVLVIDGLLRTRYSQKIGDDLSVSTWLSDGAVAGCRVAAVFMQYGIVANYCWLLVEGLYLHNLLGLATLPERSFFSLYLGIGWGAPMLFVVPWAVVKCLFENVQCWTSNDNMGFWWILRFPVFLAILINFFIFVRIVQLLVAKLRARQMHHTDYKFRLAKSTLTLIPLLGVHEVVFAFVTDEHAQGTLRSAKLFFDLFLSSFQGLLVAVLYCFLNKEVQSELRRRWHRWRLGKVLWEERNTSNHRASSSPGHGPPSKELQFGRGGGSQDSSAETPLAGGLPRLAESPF
Nature of the test: Glucagon Receptor Binding Assay. To be noted: 125I-Glucagon binding to membranes of CHO cells expressing cloned human glucagon receptor; value for the more active diastereomer where both were prepared. The protocol:
A stable CHO (Chinese hamster ovary) cell line expressing cloned human glucagon receptor was maintained as described (Chiechi, et. al. J Biol Chem 272, 7765-9 (1997); Cascieri, et. al. J Biol Chem 274, 8694-7 (1999)). To determine antagonistic binding affinity of compounds, 0.001-0.003 mg of cell membranes from these cells were pre-incubated with 0.100 mg WGA-coated PVT SPA beads (Amersham) for 20 minutes at room temperature in 25 μL of a buffer containing 50 mM Tris-HCl (pH 7.5), 5 mM MgCl2, 2 mM EDTA, 0.1% BSA and 3% glycerol in Costar 384 well plates with clear bottoms (#3706). Next, 25 μL of ^125I-Glucagon (New England Nuclear, Mass.) (1×10^−14 mol per well) and either 1 μL solutions of test compounds or 0.001 mM unlabeled glucagon or DMSO were added and mixed. After 4-12 hours incubation at room temperature, the radioactivity bound to the cell membranes was determined in a radioactive emission detection counter (Wallac-Microbeta). Data were analyzed using the Data Analyzer software program of Merck & Co., Inc. The IC50 values were calculated using non-linear regression analysis assuming single-site competition.
Compound `CCCC(c1ccc(C(=O)NCCC(=O)O)cc1)C(COc1ccc2cc(OC)ccc2c1)c1ccc(Cl)cc1` (racemic) [Example 86, N-[4-(1-{1-(4-chlorophenyl)-2-[(6-methoxy-2-naphthyl)oxy]ethyl}butyl)benzoyl]-β-alanine] displayed an IC50 of 16 nM.

In turn, `CCC[C@H](c1ccc(C(=O)NCCC(=O)O)cc1)[C@@H](Oc1ccc(Cl)c(Cl)c1)c1ccc(Cl)cc1` [Example 1, N-(4-{(1R)-1-[(R)-(4-chlorophenyl)(3,4-dichlorophenoxy)methyl]butyl}benzoyl)-β-alanine] gave an IC50 of 16 nM.

For the compound `CCC[C@H](c1ccc(C(=O)NCCC(=O)O)cc1)[C@@H](Oc1cc(C(C)(C)C)cc(C(C)(C)C)c1)c1ccc(Cl)cc1` [Example 5], the IC50 was 11 nM.

On to `CCC[C@H](c1ccc(C(=O)NCCC(=O)O)cc1)[C@@H](Oc1ccc(C#N)c2ccccc12)c1ccc(Cl)cc1` [Example 9], for which the IC50 stood at 6.2 nM.

On to `CCC[C@H](c1ccc(C(=O)NCCC(=O)O)cc1)[C@@H](Oc1ccc(C(F)(F)F)c(C#N)c1)c1ccc(Cl)cc1` [Example 15], for which the IC50 amounted to 5.9 nM.

Compound `CCC[C@H](c1ccc(C(=O)NCCC(=O)O)cc1)[C@@H](Oc1ccc(C)c(C#N)c1)c1ccc(Cl)cc1` [Example 16] registered an IC50 of 16 nM.

`CCC[C@H](c1ccc(C(=O)NCCC(=O)O)cc1)[C@@H](Oc1ccc(C#N)c(Cl)c1)c1ccc(Cl)cc1` [Example 18] yielded an IC50 of 25 nM.

Turning to `CCC[C@H](c1ccc(C(=O)NCCC(=O)O)cc1)[C@@H](Oc1cc(C#N)cc(-c2ccc(C(F)(F)F)cc2)c1)c1ccc(Cl)cc1` [Example 36], the IC50 is 6.3 nM.

`CCC[C@H](c1ccc(C(=O)NCCC(=O)O)cc1)[C@@H](Oc1ccc(-c2cccn2C)cc1)c1ccc(Cl)cc1` [Example 47] gave an IC50 of 9.2 nM.

Turning to `CCC[C@H](c1ccc(C(=O)NCCC(=O)O)cc1)[C@@H](Oc1ccc(-c2ccc(C(F)(F)F)cc2)cc1C#N)c1ccc(Cl)cc1` [Example 59], the IC50 amounted to 0.3 nM.

`CCC[C@H](c1ccc(C(=O)NCCC(=O)O)cc1)[C@H](Oc1ccc(C(F)(F)F)cc1)c1ccc(Cl)cc1` [Example 62] displayed an IC50 of 7.9 nM.

Turning to `CCC[C@H](c1ccc(C(=O)NCCC(=O)O)cc1)[C@H](Oc1ccc(C(F)(F)F)cc1Cl)c1ccc(Cl)cc1` [Example 65], the 50% inhibitory concentration (IC50) was found to be 12 nM.

With `CCC[C@H](c1ccc(C(=O)NCCC(=O)O)cc1)[C@@H](Oc1ccnc2c(C)cc(Cl)cc12)c1ccc(Cl)cc1` [Example 67, N-(4-{(1R)-1-[(R)-[(6-chloro-8-methylquinolin-4-yl)oxy](4-chlorophenyl)methyl]butyl}benzoyl)-β-alanine], the IC50 was 6.6 nM.

As for `CCC[C@H](c1ccc(C(=O)NCCC(=O)O)cc1)[C@@H](Oc1ccnc2cc(C)ccc12)c1ccc(Cl)cc1` [Example 68, N-[4-((1R)-1-{(R)-(4-chlorophenyl)[(7-methylquinolin-4-yl)oxy]methyl}butyl)benzoyl]-β-alanine], the IC50 stood at 7.2 nM.

Compound `CCC[C@H](c1ccc(C(=O)NCCC(=O)O)cc1)[C@@H](Oc1ccnc2cc(Cl)ccc12)c1ccc(Cl)cc1` [Example 69, N-[4-((1R)-1-{(R)-(4-chlorophenyl)[(7-chloroquinolin-4-yl)oxy]methyl}butyl)benzoyl]-β-alanine] displayed an IC50 of 4.5 nM.

`CCC[C@H](c1ccc(C(=O)NCCC(=O)O)cc1)[C@@H](Oc1cc(C(F)(F)F)nc2ccccc12)c1ccc(Cl)cc1` [Example 70, N-(4-{(1R)-1-[(R)-[(2-trifluoromethylquinolin-4-yl)oxy](4-chlorophenyl)methyl]butyl}benzoyl)-β-alanine] displayed an IC50 of 2.1 nM.

As for `CCC[C@H](c1ccc(C(=O)NCCC(=O)O)cc1)[C@@H](Oc1ccnc2cc(C#N)ccc12)c1ccc(Cl)cc1` [Example 71, N-[4-((1R)-1-{(R)-(4-chlorophenyl)[(7-cyanoquinolin-4-yl)oxy]methyl}butyl)benzoyl]-β-alanine], the 50% inhibitory concentration (IC50) was 5.5 nM.

In turn, `CCC[C@H](c1ccc(C(=O)NCCC(=O)O)cc1)[C@@H](OCc1ccc(OC(F)(F)F)cc1)c1ccc(Cl)cc1` [Example 72, N-{4-[(1R)-1-((R)-(4-chlorophenyl){[4-(trifluoromethoxy)benzyl]oxy}methyl)butyl]benzoyl}-β-alanine] came in with an IC50 of 32 nM.

Regarding `CCC[C@H](c1ccc(C(=O)NCCC(=O)O)cc1)[C@@H](OCc1ccc2ccccc2c1)c1ccc(Cl)cc1` [Example 73, N-(4-{(1R)-1-[(R)-(4-chlorophenyl)(2-naphthylmethoxy)methyl]butyl}benzoyl)-β-alanine], the IC50 worked out at 38 nM.

The compound `CCC[C@H](c1ccc(C(=O)NCCC(=O)O)cc1)[C@@H](OCc1ccc(-c2ccccc2)cc1)c1ccc(Cl)cc1` [Example 74, N-(4-{(1R)-1-[(R)-(biphenyl-4-ylmethoxy)(4-chlorophenyl)methyl]butyl}benzoyl)-β-alanine] had an IC50 of 20 nM.

Consider `N#Cc1cc(Cl)cc(O[C@@H](c2ccc(Cl)cc2)[C@H](CCC(F)(F)F)c2ccc(C(=O)NCCC(=O)O)cc2)c1` [Example 75, N-(4-{(1R)-1-[(R)-(3-chloro-5-cyanophenoxy)(4-chlorophenyl)methyl]-4,4,4-trifluorobutyl}benzoyl)-β-alanine], for which the IC50 turned out to be 18 nM.

As for `CCC[C@H](c1ccc(C(=O)NCCC(=O)O)cc1)[C@@H](Oc1cc(C#N)cc(C(F)(F)F)c1)c1ccc(Cl)cc1` [Example 76, N-[4-((1R)-1-{(R)-(4-chlorophenyl)[3-cyano-5-(trifluoromethyl)phenoxy]methyl}butyl)benzoyl]-β-alanine], the IC50 came to 4.8 nM.

The compound `CCC[C@H](c1ccc(C(=O)NCCC(=O)O)cc1)[C@@H](Oc1cc(C#N)cc(C(F)(F)F)c1)c1ccc(OC(F)(F)F)cc1` [Example 77, N-[4-((1R)-1-{(R)-(4-trifluoromethoxyphenyl)[3-cyano-5-(trifluoromethyl)phenoxy]methyl}butyl)benzoyl]-β-alanine] returned an IC50 of 2.5 nM.

`CCC[C@H](c1ccc(C(=O)NCCC(=O)O)cc1)[C@@H](Oc1cc(C#N)c(Cl)c(C(F)(F)F)c1)c1ccc(Cl)cc1` [Example 78, N-(4-{(1R)-1-[(R)-[4-chloro-3-cyano-5-(trifluoromethyl)phenoxy](4-chlorophenyl)methyl]butyl}benzoyl)-β-alanine]: the IC50 came to 1.4 nM.

`CCC[C@H](c1ccc(C(=O)NCCC(=O)O)cc1)[C@@H](Oc1cc(C(F)(F)F)ccc1C#N)c1ccc(Cl)cc1` [Example 79] returned an IC50 of 7.6 nM.

`CCC[C@H](c1ccc(C(=O)NCCC(=O)O)cc1)[C@@H](Oc1ccc(C(F)(F)F)cc1C#N)c1ccc(Cl)cc1` [Example 80] came in with an IC50 of 3.6 nM.

Turning to `CCC[C@H](c1ccc(C(=O)NCCC(=O)O)cc1)[C@@H](Oc1cc(Cl)c(Cl)c(C#N)c1)c1ccc(Cl)cc1` [Example 85], the IC50 turned out to be 1.1 nM.

The test is the same for the next values; noted with them: comparison of major and minor racemic diastereomers.
For `CCCC(c1ccc(C(=O)NCCC(=O)O)cc1)C(COc1ccc2cc(OC)ccc2c1)c1ccc(Cl)cc1` (stereo not drawn) [86 major diastereomer], the “more potent glucagon receptor antagonist of the two diastereomers” value is recorded as “more potent glucagon receptor antagonist”.

These data come from patent publication US8809579B2, “Glucagon receptor antagonist compounds, compositions containing such compounds and methods of use” (Merck Sharp & Dohme Corp., priority 2009, dated 2014).
